From PMC10974167 (Toxins, 2024)

Assays:
[1] = design: method as in PMID 22488789; conditions: cited from earlier work
[2] = format: binding; conditions: pH 8

## cholera toxin B-subunit [Wild-type]
[1]
  Lewis-y glycan binding (result in words): very low affinity
[2]
  Kd: 0.043 ± 0.008 µM
